SMILES strings stand for the structures.

The assay addresses T1, CCR2 (Homo sapiens, UniProt P41597).
T1 construct: Membranes were prepared from THP-1 cells; endogenous in cells; host or cells: THP-1 (human acute monocytic leukaemia cells), membrane preparation
T1 sequence (P41597 1-360 isoform P41597-2): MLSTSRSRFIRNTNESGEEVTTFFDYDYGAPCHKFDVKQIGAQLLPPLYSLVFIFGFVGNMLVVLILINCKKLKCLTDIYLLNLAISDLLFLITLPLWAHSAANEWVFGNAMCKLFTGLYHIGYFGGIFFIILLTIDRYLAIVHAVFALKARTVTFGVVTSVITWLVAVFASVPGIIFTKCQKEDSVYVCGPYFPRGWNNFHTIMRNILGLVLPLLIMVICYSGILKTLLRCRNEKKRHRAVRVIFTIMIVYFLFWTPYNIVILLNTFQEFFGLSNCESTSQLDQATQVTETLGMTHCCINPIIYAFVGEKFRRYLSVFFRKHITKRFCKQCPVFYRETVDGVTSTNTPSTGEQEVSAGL
As to the kind of experiment: CCR2 receptor membrane binding assay ([125I]MCP-1, THP-1 membranes, SPA beads). Conditions: dissociation constant hKi; THP-1 cell membranes, [125I]MCP-1, bound radioactivity after 8 h. As for the experimental part:
The above exemplary substances have been tested for binding to CCR2 using a binding assay as outlined herein below:
THP-1 cells (human acute monocytic leukaemia cells) were cultured under standardized conditions at 37° C. and 5% CO2 in a humidified incubator. THP-1 cells were cultivated in RPMI 1640 medium (Gibco 21875) containing 1% MEM-NEAA (Gibso 11140) 2 mM L-glutamine, 1.5 g/L sodium bicarbonate, 4.5 g/L glucose, 10 mM HEPES and 1.0 mM sodium pyruvate, 90%; 10% fetal calf serum (FCS Gibco 10500-064).
Membranes were prepared from THP-1 cells. THP-1 cells were centrifuged at 300×g at 4° C. for 10 min. The cell pellet was resuspendet in Phosphate Buffer Saline (PBS, including 10 μM Pefabloc and a protease inhibitor mix ‘complete’, Boehringer Mannheim (1 tablet/50 ml)), to a concentration of […]. The membrane preparation was performed by disrupting the cells by nitrogen […] (at 50 bar, for 1 h) in a “Nitrogen Bombe” (Parr Instrument). Cell debris was removed by centrifugation (800×g at 4° C., 1 min). The supernatant was centrifuged at 80000×g, 4° C. for 30 min to sediment the cell membranes. Usually 50 mg of protein (Bradford assay) were yielded from 1×10E9 cells. The membranes were resuspendet in 25 mM HEPES, 25 mM MgCl2, 1 mM CaCl2, 10% Glycerine for storage in aliquots at −80° C. in 25 mM HEPES, 25 mM MgCl2, 1 mM CaCl2, 10% Glycerine and stored at −80° C.
Receptor Membrane Binding Assay:
Perkin Elmer NEX 332 Jod 125 MCP-1, Stock: 2200 Ci/mmol solved in 2000 μl assay buffer, stored at −20° C. THP-1 membrane were adjusted with 25 mM HEPES, pH 7.2; 5 mM MgCl2; 0.5 mM CaCl2; 0.2% BSA assay buffer to a concentration of 2.5 μg/15 μl. Amersham Biosciences PVT-WGA Beads (RPNQ0001) were adjusted with assay buffer to a concentration of 0.24 mg/30 μl. For preparation of the membrane-bead-suspension membranes and beads were incubated for 30 min at RT under rotation (60 rpm) with a ratio of 1:2. Test compounds dissolved in 100% DMSO to a concentration of 10 mM and are further diluted with 100% DMSO to 1 mM. All additional compound dilutions were obtained with assay buffer, final 1% DMSO. Compounds, membrane-bead-suspension and [125I]MCP-1 (ca. 25000 cpm/10 μl) were incubated. Bound radioactivity was determined by scintillation counter after 8 h. Determination of affinity of test compounds (dissociation constant hKi) is calculated by iterative fitting of experimental data using the “easy sys” program, which is based on law of mass action (Schittkowski K. (1994), Numerische Mathematik, Vol. 68, 129-142).
On to `CO[C@@H]1COCC[C@@H]1NC1CCN(C(=O)c2cc(NC[C@H]3CCC[C@@H](c4ccc(C)cc4)O3)nc(C(F)(F)F)n2)CC1` [Example 53i], for which the Ki amounted to 2 nM.
The value for `Cc1c(NC[C@@H]2CCC[C@H](c3ccccc3)O2)ncnc1C(=O)N1CCC(N2CCC(N(C)S(C)(=O)=O)CC2)CC1` (single isomer, unassigned) [Example 13] was 486 nM; that for `Cc1ccc([C@@H]2CCC[C@H](CNc3ncnc(C(=O)N4CCC(N5CCC(c6cccc(C(=O)O)c6)C5)CC4)c3C)O2)cc1` (some centres unmarked) [Example 55] was 311 nM.
The value for `CO[C@H]1COCC[C@H]1NC1CCN(C(=O)c2cc(NC[C@H]3CCC[C@@H](c4ccc(C(F)(F)F)cc4)O3)ncn2)CC1` [Example 28k] was 3 nM; that for `CO[C@@H]1COCC[C@@H]1NC1CCN(C(=O)c2ncnc(NC[C@@H]3CCC[C@H](c4ccccc4)O3)c2C)CC1` [Example 39] was 287 nM; that for `Cc1ccc([C@H]2CCC[C@@H](CNc3ncnc(C(=O)N4CCC(N5CCC6(CC5)CC(C(=O)O)c5ccccc56)CC4)c3C)O2)cc1` (some centres unmarked) [Example 60] was 733 nM.
As for `CO[C@H]1COCC[C@H]1NC1CCN(C(=O)c2ncnc(NC[C@H]3CCC[C@@H](c4ccc(Cl)cc4)O3)c2C)CC1` [Example 42], the figure is 8 nM; as for `Cc1c(NC[C@H]2CCC[C@@H](c3ccc(OC(F)(F)F)cc3)O2)ncnc1C(=O)N1CCC(N2CCC(N(C)S(C)(=O)=O)CC2)CC1` [Example 26], 6 nM; as for `CO[C@H]1COCC[C@H]1N(C)C1CCN(C(=O)c2ncnc(NC[C@H]3CCC[C@@H](c4ccc(C)cc4)O3)c2C)CC1` [Example 54], 28 nM.
With `CO[C@H]1COCC[C@H]1N(C)C1CCN(C(=O)c2ncnc(NC[C@H]3CCC[C@@H](c4ccc(C(F)(F)F)cc4)O3)c2C)CC1` [Example 54a], the Ki came out at 5 nM.
For the compound `CO[C@@H]1COCC[C@@H]1NC1CCN(C(=O)c2ncnc(NC[C@H]3CCC[C@@H](c4cccc(C)c4)O3)c2C)CC1` [Example 49], the Ki was 4 nM.
The value for `CO[C@H]1COCC[C@H]1NC1CCN(C(=O)c2ncnc(NC[C@@H]3CCC[C@H](c4ccc(OC(F)(F)F)cc4)O3)c2C)CC1` [Example 53c] was 98 nM.
Regarding `CO[C@H]1COCC[C@H]1NC1CCN(C(=O)c2cc(NC[C@H]3CCC[C@@H](c4ccc(C)cc4)O3)nc(C(F)(F)F)n2)CC1` [Example 53h], the Ki worked out at 2 nM.
As for `Cc1cccc([C@@H]2CCC[C@H](CNc3nc(C)nc(C(=O)N4CCC(N5CCC(N(C)S(C)(=O)=O)CC5)CC4)c3C)O2)c1` [Example 22], the figure is 11 nM; as for `COc1nc(NC[C@H]2CCC[C@@H](c3ccc(C(F)(F)F)cc3)O2)cc(C(=O)N2CCC(N[C@H]3CCOC[C@H]3OC)CC2)n1` [Example 53p], 0.8 nM.
As for `Cc1ccc([C@@H]2CCC[C@H](CNc3ncnc(C(=O)N4CCC(N5CCC6(CC5)Cc5ccccc5O6)CC4)c3C)O2)cc1` [Example 53x], the figure is 9 nM.
Turning to `CO[C@H]1COCC[C@H]1NC1CCN(C(=O)c2ncnc(NC[C@H]3CCC[C@@H](c4cccc(C)c4)O3)c2C)CC1` [Example 48], the Ki stood at 7 nM.
As for `CO[C@@H]1COCC[C@@H]1NC1CCN(C(=O)c2ncnc(NC[C@H]3CCC[C@@H](c4ccc(C(F)(F)F)cc4)O3)c2C)CC1` [Example 52], the figure is 1 nM; as for `Cc1ccc([C@@H]2CCC[C@H](CNc3ncnc(C(=O)N4CCC(N5CCC(N(C)S(C)(=O)=O)CC5)CC4)c3C)O2)cc1` [Example 17], 11 nM.
On to `CO[C@@H]1COCC[C@@H]1NC1CCN(C(=O)c2ncnc(NC[C@H]3CCC[C@@H](c4cccc(C(F)(F)F)c4)O3)c2C)CC1` [Example 47], for which the Ki was found to be 94 nM.
The value for `Cc1c(NC[C@H]2CCC[C@@H](c3ccc(OC(F)(F)F)cc3)O2)ncnc1C(=O)N1CCC(NC2CCOCC2F)CC1` (some centres unmarked) [Example 53w] was 0.6 nM; that for `CO[C@H]1COCC[C@H]1NC1CCN(C(=O)c2nccc(NC[C@H]3CCC[C@@H](c4ccc(C)cc4)O3)c2C)CC1` [Example 53j] was 21 nM.
The value for `CO[C@@H]1COCC[C@@H]1NC1CCN(C(=O)c2nc(C(F)(F)F)nc(NC[C@H]3CCC[C@@H](c4ccccc4)O3)c2C)CC1` [Example 53ai] was 1.1 nM; that for `Cc1c(NC[C@@H]2CCC[C@H](c3ccc(C(F)(F)F)cc3)O2)ncnc1C(=O)N1CCC(N2CCC(N(C)S(C)(=O)=O)CC2)CC1` [Example 2] was 151 nM; that for `Cc1c(NC[C@@H]2CCC[C@H](c3cccc(C(F)(F)F)c3)O2)ncnc1C(=O)N1CCC(N2CCC(N(C)S(C)(=O)=O)CC2)CC1` [Example 28a] was 45 nM.
As for `CO[C@H]1COCC[C@H]1NC1CCN(C(=O)c2ncnc(NC[C@@H]3CCC[C@H](c4cccc(C(F)(F)F)c4)O3)c2C)CC1` [Example 46], the figure is 302 nM; as for `Cc1ccc([C@@H]2CCC[C@H](CNc3ncnc(C(=O)N4CCC(NC5CCOCC5F)CC4)c3C)O2)cc1` (some centres unmarked) [Example 53v], 7 nM; as for `CO[C@H]1COCC[C@H]1NC1CCN(C(=O)c2ncnc(NC[C@H]3CCC[C@@H](c4ccccc4)O3)c2C)CC1` [Example 40], 26 nM.
Consider `Cc1ccc([C@@H]2CCC[C@H](CNc3cc(C(=O)N4CCC(N5CCC(N(C)S(C)(=O)=O)CC5)CC4)ncn3)O2)cc1` [Example 28g], for which the Ki worked out at 8 nM.
On to `CO[C@H]1COCC[C@H]1NC1CCN(C(=O)c2ncnc(NC[C@H]3CCC[C@@H](c4ccc(C)cc4)O3)c2C)CC1` [Example 30], for which the Ki amounted to 5 nM.
As for `Cc1ccc(C2CCC[C@H](CNc3ncnc(C(=O)N4CCC(N5CCC(c6ccc(C(=O)O)cc6)C5)CC4)c3C)O2)cc1` (some centres unmarked) [Example 58], the figure is 1130 nM.
Turning to `Cc1c(NC[C@H]2CCC[C@@H](c3cccc(C(F)(F)F)c3)O2)ncnc1C(=O)N1CCC(N2CCC(N(C)S(C)(=O)=O)CC2)CC1` [Example 8], the Ki was determined as 185 nM.
The value for `CO[C@@H]1COCC[C@@H]1NC1CCN(C(=O)c2nc(C)nc(NC[C@H]3CCC[C@@H](c4cccc(C)c4)O3)c2C)CC1` [Example 51] was 8 nM; that for `COc1nc(NC[C@H]2CCC[C@@H](c3ccccc3)O2)c(C)c(C(=O)N2CCC(N[C@H]3CCOC[C@H]3OC)CC2)n1` [Example 53ag] was 5 nM.
Turning to `COc1nc(NC[C@H]2CCC[C@@H](c3ccc(OC(F)(F)F)cc3)O2)cc(C(=O)N2CCC(N[C@@H]3CCOC[C@@H]3OC)CC2)n1` [Example 53q], the Ki stood at 1 nM.
`CO[C@H]1COCC[C@H]1NC1CCN(C(=O)c2ccnc(NC[C@H]3CCC[C@@H](c4ccc(C)cc4)O3)c2C)CC1` [Example 53e]: the Ki was 16 nM.
With `COc1nc(NC[C@H]2CCC[C@@H](c3ccc(OC(F)(F)F)cc3)O2)c(C)c(C(=O)N2CCC(N[C@@H]3CCOC[C@@H]3OC)CC2)n1` [Example 53ad], the Ki amounted to 0.3 nM.
As for `CO[C@H]1COCC[C@H]1NC1CCN(C(=O)c2ncnc(NC[C@H]3CCC[C@@H](c4ccc(C(F)(F)F)cc4)O3)c2C)CC1` [Example 53], the figure is 2 nM.
As for `COc1nc(NC[C@H]2CCC[C@@H](c3ccc(C)cc3)O2)c(C)c(C(=O)N2CCC(N[C@H]3CCOC[C@H]3OC)CC2)n1` [Example 53aa], the figure is 2 nM; as for `CO[C@@H]1COCC[C@@H]1NC1CCN(C(=O)c2ncnc(NC[C@H]3CCC[C@@H](c4ccc(OC(F)(F)F)cc4)O3)c2C)CC1` [Example 53b], 20 nM.
For the compound `CO[C@H]1COCC[C@H]1NC1CCN(C(=O)c2nc(C(F)(F)F)nc(NC[C@H]3CCC[C@@H](c4ccccc4)O3)c2C)CC1` [Example 53ah], the Ki was determined as 0.8 nM.
